The record followed here is PubChem BioAssay AID1259411 (Chemical Carcinogenesis Research Information System (CCRIS), 2018).

Activity calls are given as the source filed them. No rule for the calls is given here.

This data set relates to rodent carcinogenicity bioassays, tumor incidence. Put plainly: CCRIS carcinogenicity studies. The method, boiled down:
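NCI-built, expert-reviewed records of carcinogenicity and related test outcomes (mutagenicity, tumor promotion/inhibition) compiled from published and report sources, historical span 1985-2011, not updated.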

With `C=CCN(N)CC=C`, the carcinogen call was “active; positive” (Species: MOUSE, Strain/Sex: SWISS/FEMALE, Route: ORAL, Dose: 0.03125% IN DRINKING WATER FOR LIFE, Tumor Site: Type of Lesion: LUNG: ADENOMA, ADENOCARCINOMA) and “active; positive” (Species: MOUSE, Strain/Sex: SWISS/MALE, Route: ORAL, Dose: 0.03125% IN DRINKING WATER FOR LIFE, Tumor Site: Type of Lesion: LUNG: ADENOMA, ADENOCARCINOMA, FORESTOMACH: SQUAMOUS CELL PAPILLOMA, CARCINOMA).

As to `CC(C)(C)Br`, the carcinogen call (Species: MOUSE, Route: INTRAPERITONEAL, Tumor Site: Type of Lesion: LUNG) is “active; positive”.

Regarding `CCOP(=O)=O.CCOP(=O)=O.CCOP(=O)=O.[Al+3]`, the carcinogen call runs as follows: (Species: Mouse, Strain/Sex: CD-1/Female (60/Group), Route: Oral) “inactive; negative”; (Species: Mouse, Strain/Sex: CD-1/Male (60/Group), Route: Oral) “inactive; negative”; (Species: Rat, Strain/Sex: CD Sprague-Dawley/Male (80/Group), Route: Oral, Dose: 0, 88, 348, 1372 mg/kg/day in diet for 24 mo, study duration 24 mo, Dose: 0, 88, 348, 1372 mg/kg/day in diet for 24 mo, study duration 24 mo, Tumor Site: Type of Lesion: Adrenal medulla: pheochromocytoma (5/80, 7/79. 15/81, 16/81). Urinary bladder: Carcinoma and papilloma combined (1/78 in) “active; positive. (department of pesticides regulation reviewer described as a possible”; (Species: Rat, Strain/Sex: CD Sprague-Dawley/Male (80/Group), Route: Oral, Dose: 0, 117, 450, 1786 mg/kg/day in diet for 24 mo, study duration 24 mo, Dose: 0, 117, 450, 1786 mg/kg/day in diet for 24 mo, study duration 24 mo) “inactive; negative”.

As for `CN(C)c1nc(=O)n(C2CCCCC2)c(=O)n1C`, the carcinogen call is, setting by setting: (Species: DOG, Strain/Sex: BEAGLE/FEMALE, Route: ORAL, Dose: 0, 200, 1000 PPM IN DIET FOR 90 D OR 5000 PPM FOR 1 WK, THEN 2500 PPM FOR 4 D IN WK 2 THEN 3750 PPM FOR 3 D FOLLOWED BY, Dose: 0, 200, 1000 PPM IN DIET FOR 90 D OR 5000 PPM FOR 1 WK, THEN 2500 PPM FOR 4 D IN WK 2 THEN 3750 PPM FOR 3 D FOLLOWED BY) “inactive; negative”; (Species: DOG, Strain/Sex: BEAGLE/MALE, Route: ORAL, Dose: 0, 200, 1000 PPM IN DIET FOR 90 D OR 5000 PPM FOR 1 WK, THEN 2500 PPM FOR 4 D IN WK 2 THEN 3750 PPM FOR 3 D FOLLOWED BY, Dose: 0, 200, 1000 PPM IN DIET FOR 90 D OR 5000 PPM FOR 1 WK, THEN 2500 PPM FOR 4 D IN WK 2 THEN 3750 PPM FOR 3 D FOLLOWED BY) “inactive; negative”; (Species: MOUSE, Strain/Sex: CD-1/FEMALE, Route: ORAL, Dose: 0, 200, 2500, 10000 PPM IN DIET FOR 2 YR (STUDY DURATION: 2 YR), Dose: 0, 200, 2500, 10000 PPM IN DIET FOR 2 YR (STUDY DURATION: 2 YR)) “inactive; negative”; (Species: MOUSE, Strain/Sex: CD-1/MALE, Route: ORAL, Dose: 0, 200, 2500, 10000 PPM IN DIET FOR 2 YR (STUDY DURATION: 2 YR), Dose: 0, 200, 2500, 10000 PPM IN DIET FOR 2 YR (STUDY DURATION: 2 YR)) “inactive; negative”; (Species: RAT, Strain/Sex: CRL-CD/FEMALE, Route: ORAL, Dose: 0, 200, 1000, 2500 PPM IN DIET FOR 2 YR (STUDY DURATION: 2 YR), Dose: 0, 200, 1000, 2500 PPM IN DIET FOR 2 YR (STUDY DURATION: 2 YR)) “inactive; negative”; (Species: RAT, Strain/Sex: CRL-CD/MALE, Route: ORAL, Dose: 0, 200, 1000, 2500 PPM IN DIET FOR 2 YR (STUDY DURATION: 2 YR), Dose: 0, 200, 1000, 2500 PPM IN DIET FOR 2 YR (STUDY DURATION: 2 YR)) “inactive; negative”.

For `Cc1cc2ncccc2c2nc(N)n(C)c12`, the carcinogen call (Species: MOUSE, Strain/Sex: C57BL/6N/FEMALE, Route: ORAL, Dose: 0, 300 PPM IN DIET FOR 92 WK (STUDY DURATION: 92 WK), Tumor Site: Type of Lesion: COLON: ADENOCARCINOMA, CECUM: ADENOCARCINOMA, LIVER: HEPATOCELLULAR ADENOMA, HEPATOCELLULAR CARCINOMA, OR FIBROSARCOMA, Tumor Site: Type of Lesion: COLON: ADENOCARCINOMA, CECUM: ADENOCARCINOMA, LIVER: HEPATOCELLULAR ADENOMA, HEPATOCELLULAR CARCINOMA, OR FIBROSARCOMA) was “active; positive”; the carcinogen call (Species: MOUSE, Strain/Sex: CDF1/FEMALE, Route: ORAL, Dose: 0, 0.04% IN THE DIET FOR STUDY DURATION (STUDY DURATION: LIFESPAN), Tumor Site: Type of Lesion: FORESTOMACH: PAPILLOMA, SQUAMOUS CELL CARCINOMA, LIVER: HEPATOCELLULAR ADENOMA, HEPATOCELLULAR CARCINOMA) was “active; positive”; the carcinogen call (Species: MOUSE, Strain/Sex: CDF1/MALE, Route: ORAL, Dose: 0, 0.04% IN THE DIET FOR STUDY DURATION (STUDY DURATION: LIFESPAN), Tumor Site: Type of Lesion: FORESTOMACH: PAPILLOMA, SQUAMOUS CELL CARCINOMA, LIVER: CHOLANGIOCARCINOMA) was “active; positive”; the carcinogen call (Species: RAT, Strain/Sex: F344/MALE, Route: ORAL, Dose: 0, 0.03% IN DIET (DAILY INTAKE: 3.8 MG) FOR 286 D (STUDY DURATION: 286 D), Tumor Site: Type of Lesion: ZYMBAL GLAND: SQUAMOUS CELL CARCINOMA, ORAL CAVITY: SQUAMOUS CELL CARCINOMA OR SEBACEOUS SQUAMOUS CELL CARCINOMA, COLON:, Tumor Site: Type of Lesion: ZYMBAL GLAND: SQUAMOUS CELL CARCINOMA, ORAL CAVITY: SQUAMOUS CELL CARCINOMA OR SEBACEOUS SQUAMOUS CELL CARCINOMA, COLON:) was “active; positive”; the carcinogen call (Species: RAT, Strain/Sex: F344/MALE, Route: ORAL, Dose: 0, 0.03% IN DIET (DAILY INTAKE: 5.6 MG) FOR 286 D (STUDY DURATION: 286 D), Tumor Site: Type of Lesion: ZYMBAL GLAND: SQUAMOUS CELL CARCINOMA, ORAL CAVITY: SQUAMOUS CELL CARCINOMA OR SEBACEOUS SQUAMOUS CELL CARCINOMA, COLON:, Tumor Site: Type of Lesion: ZYMBAL GLAND: SQUAMOUS CELL CARCINOMA, ORAL CAVITY: SQUAMOUS CELL CARCINOMA OR SEBACEOUS SQUAMOUS CELL CARCINOMA, COLON:) was “active; positive”; the carcinogen call (Species: RAT, Strain/Sex: WISTAR/MALE, Route: INTRAGASTRIC, Dose: 0, 10 MG/KG IN ACIDIFIED WATER 1/D FOR 2 WK (STUDY DURATION: 58 WK), Tumor Site: Type of Lesion: ZYMBAL GLAND: CARCINOMA) was “active; positive”.

Take `O=S(=O)([O-])[O-].[Ni+2]`: the carcinogen call runs as follows: (Species: MOUSE, Strain/Sex: B6C3F1/FEMALE, Route: INHALATION, Dose: 0, 0.25, 0.5, 1 MG/M3 6 HR/D 5 D/WK FOR 104 WK (STUDY DURATION: 105 WK), Dose: 0, 0.25, 0.5, 1 MG/M3 6 HR/D 5 D/WK FOR 104 WK (STUDY DURATION: 105 WK)) “inactive; negative”; (Species: MOUSE, Strain/Sex: B6C3F1/MALE, Route: INHALATION, Dose: 0, 0.25, 0.5, 1 MG/M3 6 HR/D 5 D/WK FOR 104 WK (STUDY DURATION: 105 WK), Dose: 0, 0.25, 0.5, 1 MG/M3 6 HR/D 5 D/WK FOR 104 WK (STUDY DURATION: 105 WK)) “inactive; negative”; (Species: RAT, Strain/Sex: F344/FEMALE, Route: INHALATION, Dose: 0, 0.12, 0.25, 0.5 MG/M3 6 HR/D 5 D/WK FOR 104 WK (STUDY DURATION: 105 WK), Dose: 0, 0.12, 0.25, 0.5 MG/M3 6 HR/D 5 D/WK FOR 104 WK (STUDY DURATION: 105 WK)) “inactive; negative”; (Species: RAT, Strain/Sex: F344/MALE, Route: INHALATION, Dose: 0, 0.12, 0.25, 0.5 MG/M3 6 HR/D 5 D/WK FOR 104 WK (STUDY DURATION: 105 WK), Dose: 0, 0.12, 0.25, 0.5 MG/M3 6 HR/D 5 D/WK FOR 104 WK (STUDY DURATION: 105 WK)) “inactive; negative”; (Species: RAT, Strain/Sex: F344/MALE, Route: INTRAMUSCULAR, Dose: 0, 63, 83, UMOL/KG GIVEN IN 14 INJECTIONS OVER 26 D (STUDY DURATION; 2 YR), Dose: 0, 63, 83, UMOL/KG GIVEN IN 14 INJECTIONS OVER 26 D (STUDY DURATION; 2 YR)) “inactive; negative”; (Species: Rat, Strain/Sex: Fischer 344/Female (50/group), Route: Oral, Dose: 0, 10, 30, 50 mg/kg/day by gavage once daily for 104 wk, Dose: 0, 10, 30, 50 mg/kg/day by gavage once daily for 104 wk) “inactive; negative”. Further, the carcinogen call (Species: Rat, Strain/Sex: Fischer 344/Male (50/group), Route: Oral, Dose: 0, 10, 30, 50 mg/kg/day by gavage once daily for 104 wk, Dose: 0, 10, 30, 50 mg/kg/day by gavage once daily for 104 wk) was “inactive; negative”.
